Experimental data: patent US6013672A, “Agonists of metabotropic glutamate receptors and uses thereof” (UAB Research Foundation, priority 1997, dated 2000)
Read-outs that look alike come from different tables or passages of the source.

Columns and labels:
hippocampal astrocytes [1] = assay: Intracellular glutamate content [Glu]i of astrocytes; format: cell-based, rat
Protocol: For experiments in which [Glu]o concentrations were assessed by the bioluminescence method, cells were maintained in glutamate-depleted medium in the presence or absence of the agonists/antagonist combination of interest. […] After the incubation period, the stimulation media (containing drugs of interest) were aspirated and cells were washed twice with MEM and allowed to remain for 30 to 60 minutes in drug free MEM supplemented with 20 mM glucose prior to taking media samples for glutamate measurements. To assess acute drug effects, untreated cells were washed and the reagent of interest applied in glucose supplemented MEM. Cells were harvested in 0.3 N NaOH and neutralized with 0.3 N HCl. Aliquots were stored in -20° C. for protein and [Glu]i determination. Glutamate standards used for calibration were prepared in MEM (For [Glu]i in 0.15 N NaCl).

hippocampal astrocytes [2] = assay: Extracellular glutamate [Glu]o released by astrocyte cultures (bioluminescence); format: cell-based, rat; conditions: for minimal effective concentration: Rattus norvegicus, Astrocyte; for order of potency in mimicking ACPD effect on glutamate release: FIG. 7B; for effect on [Glu]o / glutamate release: cells treated for 24 hours, then MEM; for antagonism of ACPD effects on [Glu]o: applied simultaneously with ACPD; for antagonism of the effect of L-CCG-I on [Glu]o: data not shown; for effect on [Glu]o when Na+ gradient is disrupted: 1.0 mM Ouabain, 1.0/5.0 mM L-AA, 30 minute treatment
hippocampal astrocytes [3] = assay: 3H-D-aspartate (glutamate/aspartate) uptake in astrocytes; format: cell-based, rat; conditions: for effect on aspartate uptake: KA or NMDA 1 mM, 24 hours
Protocol: Uptake procedures were essentially identical to those previously described (Kimelberg et al. 1989; Ye et al., 1996). Briefly, 5-10 minutes before assessing uptake, astrocytes were washed and kept in a solution containing (in mM): NaCl 122, KCl 3, MgSO4 0.4, KH2 PO4 1.2, NaHCO3 25, D-glucose 10, and CaCl2 1.3, at 37° C., bubbled with 5%/95% CO2 /O2. Then the cells were switched to the above solution supplemented with 0.1 mM D-aspartate and 0.4 μCi/ml ^3 H-D-aspartate. Glutamate/aspartate uptake was determined over a 10 or 30 minutes period and was terminated by three quick washes, twice with ice cold 0.29 M sucrose solution with 10 mM Tris Nitrate, 0.5 mM Ca(NO3)2, (pH 7.40 by NaOH) and then with ice cold PBS. Cells were then harvested after a 30 minute incubation in 0.3 N NaOH solution (37° C.) and ^3 H activity was determined in a liquid scintillation counter (Beckman). Total uptake was normalized to protein content to eliminate variability due to cell number. Protein levels were determined using the bicinchoninic acid (BCA) assay (Pierce; Rockford, Ill.).

glial cells = assay: Glial glutamate uptake and extracellular glutamate with MPTP/MPP+ and t-ACPD; format: cell-based; conditions: for elevations of extracellular glutamate levels: glial cells
Protocol: The normally low glutamate levels in the brain are established and maintained in glial cells by non-vesicular uptake of glutamate through a Na^+ -dependent transporter (FIG. 14). Once taken up, glutamate can be converted to glutamine and recycled for neurotransmitter synthesis in neurons (FIG. 14). If glial cells in culture are exposed to high glutamate concentrations (e.g., 100 μM), they will remove it from the extracellular space and essentially "detoxify" the neuronal environment. […] Under those conditions, extracellular glutamate levels are elevated to 7 μM (FIG. 16), which is toxic to most surrounding neurons.
Impaired glial glutamate transport may contribute to the loss of dopaminergic neurons in Parkinson's disease. Thus, stimulation of this pathway would be neuroprotective. A drug and its receptor on glial cells was identified that allows enhanced glutamate detoxification. Specifically, trans-ACPD (trans-1-amino-1,3-cyclopentane dicarboxylic acid) (t-ACPD), a group II metabotropic glutamate receptor agonist, enhanced glial glutamate uptake (FIG. 17). It's actions were 2-fold; (i) it enhanced glutamate uptake by up to 80%, and (ii) it decreased non-specific release of glutamate, effectively trapping glutamate inside glial cells. In fact, the release of glutamate decreased to such a large extent that it almost made the transporter rectify, e.g. allowing only influx and preventing outflow of glutamate (FIG. 18). […] Using antibodies and further pharmacological studies, the receptor that is responsible for these effects has been identified as mGluR2/3.
In Parkinson's disease, it is believed that neurons may die of excitotoxic exposure to glutamate. The present invention determined that MPTP directly effects glutamate uptake into astrocytes (FIG. 21, top left). […] This increased release may be sufficient to explain some of the subsequent neurodegeneration.

dopaminergic neurons = assay: Cell death of dopaminergic neurons induced by glutamate or MPTP; format: cell-based, rat; conditions: 0.2 mM
Protocol: Cell death of dopaminergic neurons induced by glutamate, and the role of glial glutamate transport in protection of cell death at the cellular level were studied as it relates to Parkinson's disease. […] Thus, glutamate concentrations as low as 3-5 μM induced rapid cell death (FIGS. 11 and 12). Glutamate concentrations were also measured in the normal brain. They are typically around 1 μM, below the toxic level for dopaminergic neurons. […] This late onset of glutamate toxicity is compatible with the late onset of Parkinson's disease.

[4] = co-incubation, Forskolin 10 μM, Db-cAMP 0.2 mM

O=C(O)[C@@H]1CN[C@@H](C(=O)O)C1 (relative stereo) [PDC, 1-trans-pyrrolidine-2,4,-dicarboxylate]
cellular glutamate content (hippocampal astrocytes [1]; 70 minutes incubation with 500 μM): 102.9±12.1 % of control

N[C@H](C(=O)O)[C@H](O)C(=O)O (relative stereo) [THA, DL-threo-β-hydroxyaspartate]
activity at 500 µM (hippocampal astrocytes [1]; Rattus norvegicus, Astrocyte, 70 min, 70 minutes incubation with 500 μM, read-out: cellular glutamate content): 110 ± 14.7%
glutamate release induced by transportable uptake inhibitor (hippocampal astrocytes [2]; 5-2000 μM in glutamate free MEM, 25 and 70 minutes): increased glutamate release from astrocytes in a dose- and time-dependent manner
minimal effective concentration (hippocampal astrocytes [2]; glutamate free MEM, read-out: concentration giving significant increases in glutamate release): > 100 µM

N[C@]1(C(=O)O)CC[C@H](C(=O)O)C1 [1R3S-ACPD, (1R,3S)-1-aminocyclopentane-1,3-dicarboxylic acid]
activity at 1000 µM (hippocampal astrocytes [1]; Rattus norvegicus, Astrocyte, 24 h, highest dose used (1 mM), chronic treatment): 18.4 ± 0.9%
effect on aspartate uptake (hippocampal astrocytes [3]): No significant effects
minimal effective concentration (hippocampal astrocytes [2]; 24 hours treatment, read-out: concentrations required to achieve any significant effect on glutamate release): > 50 µM

N[C@@]1(C(=O)O)CC[C@H](C(=O)O)C1 [1S3S-ACPD, (1S,3S)-1-aminocyclopentane-1,3-dicarboxylic acid]
order of potency in mimicking ACPD effect on glutamate release (hippocampal astrocytes [2]): S-4CPG>1S3R-ACPD>L-CCG-I>1S3S-ACPD=QA
effect on [Glu]o / glutamate release (hippocampal astrocytes [2]): reduce [Glu]o in a dose-dependent manner

N[C@@]1(C(=O)O)CC[C@@H](C(=O)O)C1 [ACPD]
dose required for enhancement of uptake (hippocampal astrocytes [3]): ≈ 500 μM
acute effect on uptake (hippocampal astrocytes [3]; acute application of up to 3 hours): ineffective in enhancing uptake
enhancement of uptake (hippocampal astrocytes [3]; astrocytes from animals >P9, n=11): 35.2%±3.8%
enhancement of uptake (hippocampal astrocytes [3]; astrocytes from neonatal rat pups, n=14): 24.5%±2.4%
enhancement of uptake by region (hippocampal astrocytes [3]; hippocampal and spinal cord astrocytes): significant enhancement of uptake
persistence of effects (FIG. 6 Off curve) (hippocampal astrocytes [2]): over 10 hours
preincubation time for maximal effect (FIG. 6 On curve) (hippocampal astrocytes [2]): > 6 h
effect remaining after washout (hippocampal astrocytes [2]; 10 hours after ACPD had been washed off): 50%
time for effect to return to control levels after washout (hippocampal astrocytes [2]; 24 hours treatment, then ACPD free glutamate-depleted medium): about 20 hours
reduction in the steady-state [Glu]o (hippocampal astrocytes [2]; astrocytes cultured from animals >P10, on average): ≈ 5 fold
reduction in the steady-state [Glu]o (hippocampal astrocytes [2]; astrocytes cultured from younger animals): 30-50%
ACPD modulation of [Glu]o under disrupted Na+ gradient (hippocampal astrocytes [2]; low Na+/high K+, Ouabain or L-AA): failed to modulate [Glu]o

N[C@H](C(=O)O)c1cc(O)cc(O)c1 [DHPG, (S)-3,5-dihydroxyphenylglycine]
effect on [Glu]o / glutamate release (hippocampal astrocytes [2]): ineffective

CCCC(=O)Nc1ncnc2c1ncn2[C@@H]1O[C@@H]2COP(=O)(O)O[C@H]2[C@H]1OC(=O)CCC [Db-cAMP, Dibutylyl-cAMP]
effect on ACPD effects on [Glu]o (hippocampal astrocytes [2]; [4]): neither blocked nor facilitated the ACPD effects on [Glu]o
effect on [Glu]o alone (hippocampal astrocytes [2]; up to highest concentration tested, 3 mM): did not significantly change [Glu]o

CC[C@](N)(CCC(=O)O)C(=O)O [EGLU, (2S)-α-Ethylglutamic acid]
antagonism of ACPD effects on [Glu]o (hippocampal astrocytes [2]): unable to suppress ACPD effects on [Glu]o
antagonism of the effect of L-CCG-I on [Glu]o (hippocampal astrocytes [2]): failed to inhibit the effect of other mGluR agonists

C=C[C@@]1(C)CC(=O)[C@]2(O)[C@@]3(C)[C@@H](O)CCC(C)(C)[C@@H]3[C@H](O)[C@H](OC(C)=O)[C@@]2(C)O1 [Forskolin]
effect on ACPD effects on [Glu]o (hippocampal astrocytes [2]; [4]): neither blocked nor facilitated the ACPD effects on [Glu]o

C=C(C)[C@H]1CN[C@H](C(=O)O)[C@H]1CC(=O)O [KA]
effect on aspartate uptake (hippocampal astrocytes [3]): No significant effects
effect on [Glu]o / glutamate release (hippocampal astrocytes [2]): ineffective

N[C@@H](CCCC(=O)O)C(=O)O [L-AA, L-aminoadipic acid]
effect on [Glu]o when Na+ gradient is disrupted (hippocampal astrocytes [2]): elevated [Glu]o

N[C@@H](CCP(=O)(O)O)C(=O)O [L-AP4, L(+)-2-amino-4-phosphonobutyric acid]
effect on [Glu]o / glutamate release (hippocampal astrocytes [2]): ineffective

N[C@H](C(=O)O)[C@H]1C[C@@H]1C(=O)O [L-CCG-I, (2S,3S,4S)-2-(carboxycyclopropyl) glycine]
order of potency in mimicking ACPD effect on glutamate release (hippocampal astrocytes [2]): S-4CPG>1S3R-ACPD>L-CCG-I>1S3S-ACPD=QA
effect on [Glu]o / glutamate release (hippocampal astrocytes [2]): reduce [Glu]o in a dose-dependent manner

N[C@@H](CS(=O)O)C(=O)O [L-CSA, L-cystein-sulfinic acid]
effect on [Glu]o / glutamate release (hippocampal astrocytes [2]): ineffective

C[C@@](N)(C(=O)O)[C@H]1C[C@@H]1C(=O)O [MCCG, (2S,3S,4S)-2-methyl-2-(carboxycyclopropyl)glycine]
antagonism of ACPD effects on [Glu]o (hippocampal astrocytes [2]): unable to suppress ACPD effects on [Glu]o
antagonism of the effect of L-CCG-I on [Glu]o (hippocampal astrocytes [2]): failed to inhibit the effect of other mGluR agonists

C[C@@](N)(C(=O)O)c1ccc(C(=O)O)cc1 [MCPG, (S)-α-methyl-4-carboxyphenylglycine]
antagonism of ACPD effects on [Glu]o (hippocampal astrocytes [2]): unable to suppress ACPD effects on [Glu]o
antagonism of the effect of L-CCG-I on [Glu]o (hippocampal astrocytes [2]): failed to inhibit the effect of other mGluR agonists

C[n+]1ccc(-c2ccccc2)cc1 [MPP^+, 1-methyl-4-phenylpyridinium]
extracellular glutamate levels elevated to (glial cells): 7 µM
elevations of extracellular glutamate levels (glial cells): up to 5 fold

CN1CC=C(c2ccccc2)CC1 [MPTP, 1-methyl-4-phenyl-1-1,2,3,6-tetrahydropyridine]
ability of glial cells to detoxify glutamate (glial cells): compromised in a dose dependent manner
extracellular glutamate levels elevated to (glial cells): 7 µM
elevations of extracellular glutamate levels (glial cells): up to 5 fold
neuronal cell death (dopaminergic neurons): wide-spread cell death within less than 24 hours

CN[C@H](CC(=O)O)C(=O)O [NMDA]
effect on aspartate uptake (hippocampal astrocytes [3]): No significant effects
effect on [Glu]o / glutamate release (hippocampal astrocytes [2]): ineffective

C[C@@H]1O[C@@H](O[C@H]2C[C@@H](O)[C@]3(CO)[C@H]4[C@H](O)C[C@]5(C)[C@@H](C6=CC(=O)OC6)CC[C@]5(O)[C@@H]4CC[C@]3(O)C2)[C@H](O)[C@H](O)[C@H]1O [Ouabain]
effect on [Glu]o when Na+ gradient is disrupted (hippocampal astrocytes [2]): elevated [Glu]o

N[C@@H](Cn1oc(=O)[nH]c1=O)C(=O)O [QA, Quisqualic acid]
order of potency in mimicking ACPD effect on glutamate release (hippocampal astrocytes [2]): S-4CPG>1S3R-ACPD>L-CCG-I>1S3S-ACPD=QA
effect on [Glu]o / glutamate release (hippocampal astrocytes [2]): reduce [Glu]o in a dose-dependent manner

N[C@H](C(=O)O)c1ccc(C(=O)O)cc1 [S-4CPG, (S)-4-carboxyphenylglycine]
order of potency in mimicking ACPD effect on glutamate release (hippocampal astrocytes [2]): S-4CPG>1S3R-ACPD>L-CCG-I>1S3S-ACPD=QA
effect on [Glu]o / glutamate release (hippocampal astrocytes [2]): reduce [Glu]o in a dose-dependent manner

C[C@@H]1C[C@@H]([C@H](O)CC2CC(=O)NC(=O)C2)C(=O)[C@@H](C)C1 [cycloheximade, cycloheximide]
effect on ACPD induced attenuation of [Glu]o (hippocampal astrocytes [2]; 2 μg/ml): could not inhibit the ACPD induced attenuation of [Giu]o

cholera toxin
effect on ACPD effects on [Glu]o (hippocampal astrocytes [2]): neither inhibited nor mimicked ACPD effects

pertussis toxin
inhibition of ACPD modulation of [Glu]o (hippocampal astrocytes [2]; 0.01-500 ng/ml added 6 hours prior to ACPD): failed to inhibit ACPD modulation
reversal of ACPD modulation of [Glu]o (hippocampal astrocytes [2]; applied after ACPD had been washed off): failed to reverse the modulatory effects of ACPD
